Structures can show the parent of a compound that is named as a salt. Where two headings read alike, the source gives them in different places.

The target in this assay is SARS-CoV-2 3CLpro (Severe acute respiratory syndrome coronavirus 2, UniProt P0DTD1). In words: biochemical. It is filed as biochemical. Particulars: for SARS-CoV-2 3CLpro inhibitor grade in words: grading by IC50 in the IQF peptide assay.
The mark [1] stands for this setting: IC50, inhibition of SARS-CoV-2 3CLpro activity.
[2] abbreviates: 0.25 µM protease, 1.25 µM IQF peptide substrate, drugs 0–100 µM preincubated 1 h at 37 °C, then 3 h, N = 3, mean ± SEM, read-out: IC50, inhibition of SARS-CoV-2 3CLpro activity.

Usually IC50 stands for the concentration at which inhibition is half-maximal. `Oc1ncnc2[nH]ncc12` [Allopurinol]: under setting [1], 3.77 µM corresponded to half-maximal inhibition (IC50). Regarding `NC(=O)C[S@@+]([O-])C(c1ccccc1)c1ccccc1` [Armodafinil], the IC50 under setting [2] came to 17.9 µM. On to `C=C(c1ccc(C(=O)O)cc1)c1cc2c(cc1C)C(C)(C)CCC2(C)C` [Bexarotene], for which the “SARS-CoV-2 3CLpro inhibitor grade in words” value is recorded as “moderate”. The IC50 under setting [2] turned out to be 26.5 µM. Regarding `CC(=O)Oc1ccc(C(c2ccc(OC(C)=O)cc2)c2ccccn2)cc1` [Bisacodyl], 17.5 µM corresponded to half-maximal inhibition under setting [1] (IC50). `CN(Cc1ccc(C(C)(C)C)cc1)Cc1cccc2ccccc12` [Butenafine hydrochloride] came in with an IC50 under setting [1] of 5.4 µM.

For the compound `COCC1=C(C(=O)OC(C)OC(=O)OC(C)C)N2C(=O)[C@@H](NC(=O)/C(=N\OC)c3csc(N)n3)[C@H]2SC1` (stereo partly shown) [Cefpodoxime proxetil], the “SARS-CoV-2 3CLpro inhibitor grade in words” value is recorded as “moderate”. For the same compound, the IC50 under setting [1] amounted to 32.4 µM. Turning to `O=C(O)COCCN1CCN(C(c2ccccc2)c2ccc(Cl)cc2)CC1` (stereo not shown) [Cetirizine], the IC50 under setting [1] worked out at 25.6 µM.

As for `CCCCCCCCCCCCCCCC(=O)O[C@@H]1[C@@H](O)[C@@H](O)[C@@H]([C@H](NC(=O)[C@@H]2C[C@@H](CCC)CN2C)[C@H](C)Cl)O[C@@H]1SC.Cl` [Clindamycin palmitate hydrochloride], the “SARS-CoV-2 3CLpro inhibitor grade in words” value is “moderate”. Moreover, the IC50 under setting [2] came out at 33.2 µM.

Consider `CCC(=O)O[C@]1(C(=O)CCl)[C@@H](C)C[C@H]2[C@@H]3CCC4=CC(=O)C=C[C@]4(C)[C@@]3(F)[C@@H](O)C[C@@]21C` [Clobetasol propionate], for which, under setting [2], the IC50 came out at 18.1 µM. `C=C(CC)C(=O)c1ccc(OCC(=O)O)c(Cl)c1Cl` [Ethacrynic acid]: the IC50 under setting [2] is 1.11 µM. Turning to `CC(C)C[C@H](NC(=O)[C@@H](COC(C)(C)C)NC(=O)[C@H](Cc1ccc(O)cc1)NC(=O)[C@H](CO)NC(=O)[C@H](Cc1c[nH]c2ccccc12)NC(=O)[C@H](Cc1cnc[nH]1)NC(=O)[C@@H]1CCC(=O)N1)C(=O)N[C@@H](CCCNC(=N)N)C(=O)N1CCC[C@H]1C(=O)NNC(N)=O` [Goserelin acetate], under setting [1], the IC50 turned out to be 12 µM. Turning to `COc1ccc2cc([C@H](C)C(=O)O)ccc2c1` [Naproxen], under setting [1], 3.45 µM corresponded to half-maximal inhibition (IC50).

For `O=C(c1ccc(OCCN2CCCCC2)cc1)c1c(-c2ccc(O)cc2)sc2cc(O)ccc12` [Raloxifene hydrochloride], under setting [2], the IC50 came to 5.61 µM. Regarding `C=CC[N+]1([C@H]2C[C@H]3[C@@H]4CC[C@H]5C[C@H](O)[C@@H](N6CCOCC6)C[C@]5(C)[C@H]4CC[C@]3(C)[C@H]2OC(C)=O)CCCC1` [Rocuronium bromide], the IC50 under setting [2] amounted to 17.5 µM. Under setting [1], `CC(C)(C)NC(=O)[C@@H]1C[C@@H]2CCCC[C@@H]2CN1C[C@@H](O)[C@H](Cc1ccccc1)NC(=O)[C@H](CC(N)=O)NC(=O)c1ccc2ccccc2n1` [Saquinavir mesylate] had an IC50 of 9.92 µM. Consider `CO[C@H]1C[C@@H]2CC[C@@H](C)[C@@](O)(O2)C(=O)C(=O)N2CCCC[C@H]2C(=O)O[C@H]([C@H](C)C[C@@H]2CC[C@@H](O)[C@H](OC)C2)CC(=O)[C@H](C)/C=C(\C)[C@@H](O)[C@@H](OC)C(=O)[C@H](C)C[C@H](C)/C=C/C=C/C=C/1C` [Sirolimus (Rapamycin), Sirolimus], for which the IC50 under setting [2] was 22.3 µM.

On to `N[C@@H]1C[C@H]1c1ccccc1` [Tranylcypromine hydrochloride], for which the IC50 under setting [1] was determined as 8.64 µM. In the case of Colistin sulphate, the “SARS-CoV-2 3CLpro inhibitor grade in words” value is listed as “moderate”. In addition, the IC50 under setting [2] worked out at 23.2 µM.
